Patent US9290463B2, “Radiolabeled compounds and uses thereof” (THE TRUSTEES OF COLUMBIA UNIVERSITY IN THE CITY OF NEW YORK, priority 2010, dated 2016)

Columns and labels:
[1] = molecular target: human 5-HT1A receptor (Homo sapiens (Human), UniProt P08908); experiment: Inhibition of [3H]-8-OH-DPAT binding in membranes from CHO-h5-HT1A cells; conditions: 5 nM [3H]-8-OH-DPAT, read-out: Binding affinity value (Ki)
Procedure: In Vitro Agonist Binding Assay.
Preparation of Membrane Fractions from CHO-h5-HT1A Cells. Membranes from CHO cells stably expressing the human 5-HT1A receptor at a density of 8 pmol/mg membrane protein with 5-HT2c receptor background were prepared. Cells were grown in DMEM/F-12 medium supplemented with 5% fatal bovine serum, 50 ig/mL geneticin, and 50 ig/mL hygromycin B in a humidified atmosphere of 5% CO2 until they reached confluence. Cells were harvested by centrifugation (800 g for 5 min) and homogenized using a polytron homogenizer (Polytron, CH-6010 Kreiens-Lu, Brinkman Instrument, Westbury, N.Y.) in buffer containing 20 mM HEPES, pH7.4, 3 mM MgCl2, and a cocktail of protease inhibitors (Sigma-Aldrich, St. Louis, Mo.) at 1:2000 dilution. The homogenate was centrifuged (Beckman Optima LE80K Ultracentrifuge) at 100 000 g for 15 min at 4° C. The pellet was suspended in the same buffer and recentrifuged. The final pellet was suspended in assay buffer containing 20 mM HEPES, pH 7.4, 3 mM MgCl2, 100 mM NaCl, and a mixture of protease inhibitors and stored at −70° C. Protein concentration was determined by detergent compatible colorimetric assay using DC Protein Assay Reagents as recommended by the manufacturer (Bio-Rad, Hercules, Calif.).
Inhibition of [^3H]-8-OH-DPAT Binding by A-D or 5-HT in Membranes. For inhibition experiments, the incubation medium consisted of 20 mM HEPES, pH 7.4, 4 mM CaCl2, 5 nM [^3H]-8-OH-DPAT, and 30 μg of membrane protein in the presence of different concentrations of […] or 5-HT. The assay mixture was incubated for 10 min at 30° C. The reaction was terminated by rapid filtration through Whatman GF/B filters followed by three washes with ice cold 20 mM HEPES buffer, pH 7.4, using a cell harvester (Brandel, M-24R Gaitherburg, Md.). Bound radioactivity was determined by liquid scintillation spectrometry (Beckman).

[2] = molecular target: 5-HT1AR (Rattus norvegicus (Rat), UniProt P19327); experiment: Endogenous changes of 5-HT measured with Compound E uptake and binding in pretreated rats; format: in vivo; conditions: for SBR (specific binding ratio) of Compound E, change versus saline / SUV of Compound E, change versus saline: hippocampus, 90 min after Compound E i.v., pretreated rats
Procedure: Endogenous changes of 5-HT measurement with Compound E: Rats were pretreated according to the group below, injected with 0.1 MBq (0.18±0.02 nmol/kg, i.v.) of Compound E, then killed by decapitation after 90 minutes. Blood was collected from the trunk, the brain was extracted and the striatum, hippocampus, frontal cortex and cerebellum were dissected. Brain regions were dissolved, plasma was separated from the blood and radioactivity concentrations were determined.
The uptake and binding of Compound E after injection differed by treatment condition. […] Changes in the specific binding ratio (SBR=(activity in ROI−activity in Cerebellum)/activity in Cerebellum) were significant in Fenfluramine 1 and 2.

[3] = molecular target: 5-HT1A (Rattus norvegicus (Rat), UniProt P19327); experiment: Ex vivo saturation binding of Compound E in rat brain regions; conditions: hippocampus and frontal cortex, rats 90 min after i.v. injection, one binding-site model
Procedure: Ex vivo studies of compound E: Awake rats were injected in the tail vein with Compound E shown below:
Total mass injected was between 0.02 nmol/kg and 500 nmol/kg. All rats were decapitated after 90 minutes, based on time activity experiments with Compound E. The brains were extracted and brain regions were dissected, and then dissolved in Solvable (Packard). Blood was collected, and the plasma was separated. Radioactivity concentrations were determined by scintillation counting.
It was possible to saturate the 5-HT1A binding of Compound E in the frontal cortex and hippocampus. Data were best fitted with a one binding-site model. […] The cerebellum and plasma were unsaturable and no binding model could be fitted to the data.

Sequence of 5-HT1AR (P19327 whole entry): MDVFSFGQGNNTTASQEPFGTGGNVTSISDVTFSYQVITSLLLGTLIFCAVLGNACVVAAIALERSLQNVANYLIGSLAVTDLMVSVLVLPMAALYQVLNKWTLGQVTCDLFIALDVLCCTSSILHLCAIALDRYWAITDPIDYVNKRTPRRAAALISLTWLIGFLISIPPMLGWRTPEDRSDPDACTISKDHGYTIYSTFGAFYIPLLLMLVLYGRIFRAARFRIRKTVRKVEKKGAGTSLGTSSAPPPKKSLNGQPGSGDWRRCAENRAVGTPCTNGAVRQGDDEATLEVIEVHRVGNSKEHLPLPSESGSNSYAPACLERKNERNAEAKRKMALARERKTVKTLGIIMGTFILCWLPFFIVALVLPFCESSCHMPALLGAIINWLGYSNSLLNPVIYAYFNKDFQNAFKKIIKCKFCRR
Sequence of human 5-HT1A receptor (P08908 whole entry): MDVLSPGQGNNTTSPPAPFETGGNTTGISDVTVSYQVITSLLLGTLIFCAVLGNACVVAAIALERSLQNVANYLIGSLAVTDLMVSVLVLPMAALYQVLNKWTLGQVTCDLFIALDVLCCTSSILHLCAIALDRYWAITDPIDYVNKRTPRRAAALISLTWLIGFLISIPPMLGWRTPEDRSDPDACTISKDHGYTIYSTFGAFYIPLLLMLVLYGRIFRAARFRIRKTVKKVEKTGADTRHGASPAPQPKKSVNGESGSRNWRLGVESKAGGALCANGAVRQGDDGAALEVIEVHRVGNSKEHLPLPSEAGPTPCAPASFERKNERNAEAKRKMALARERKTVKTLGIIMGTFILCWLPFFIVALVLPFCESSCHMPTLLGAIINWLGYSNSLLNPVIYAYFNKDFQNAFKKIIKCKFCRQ
Sequence of 5-HT1A (P19327 whole entry): as the sequence (P19327 whole entry) above

Compound	Ki [1]	SBR (specific binding ratio) of Compound E, change versus saline [2]	SUV of Compound E, change versus saline [2]	Change in uptake of Compound E by treatment condition ([2]; in words)	also measured
Cn1c(=O)cnn(CCCCN2CCN(c3cccc(Br)n3)CC2)c1=O	4 nM	–	–	–	–
Cn1c(=O)cnn(CCCCN2CCN(c3cccc(I)n3)CC2)c1=O	5.5 nM	–	–	–	–
Cn1c(=O)cnn(CCCCN2CCN(c3ccccc3Br)CC2)c1=O	6 nM	–	–	–	–
CN(C)CCCC1(c2ccc(F)cc2)OCc2cc(C#N)ccc21 (centres unmarked) [Citalopram]	–	−12.2%	+4.8%	–	–
[3H]COc1ccccc1N1CCN(CCCCn2ncc(=O)n(C)c2=O)CC1 [Compound E]	–	–	–	–	Kd [3]: 17 to 18 nM
CCNC(C)Cc1cccc(C(F)(F)F)c1 (centres unmarked) [Fenfluramine]	–	+32.8%	−0.1%	Significant changes in uptake	Change in specific binding ratio of Compound E by treatment condition ([2]; in words): significant
NC(Cc1ccc(Cl)cc1)C(=O)O (centres unmarked) [Single Housed + pCPA, pCPA]	–	−15.1%	−14.1%	Significant changes in uptake	–
[3H]COc1ccccc1N1CCN(CCCCn2ncc(=O)n(C)c2=O)CC1 [drawing 34]	0.15 nM	–	–	–	–
Isoflurane [Isoflurane, 1-3% (Inhaled) + Saline]	–	−4.6%	+52.1%	Significant changes in uptake	–
